What was measured:
Type in all cases: in vivo, cd1 nu/nu mice (human GBM cell line)
[1] = tested on: U87MG glioblastoma CDX; test: Subcutaneous U87MG glioblastoma CDX: tumor weight and time of tumor progression; conditions: for tumor weight [%]: relative to vehicle = 100
Experimental: Effects of KcAng(1-7) were evaluated in vivo in a subcutaneous GBM xenograft model in nude mice. Insurgence of neurologic phenomena and differences in the survival rates were evaluated. Human GBM cell lines U87MG and U251MG were used. Cell lines were grown in DMEM nutrient mixture supplemented with 10% fetal bovine serum, 1% penicillin/streptomycin, and 25 mM HEPES buffer. All cell lines were cultured at 37° C. in a humidified atmosphere consisting of 5% CO2 and 95% air. Medium was changed every 2 days and the cell morphology was evaluated under microscope daily.
Six-week-old male athymic nude mice (age 5-7 weeks) were housed with free access to food and water in a temperature-controlled room. Each group is represented by 10 xenograft cd1 nu/nu mice. The mice were injected s.c. in the right distal hind limb with one million of cultured human tumor cell lines suspended in 0.15 mL of 2:1 solution of PBS/Matrigel (Matrigel BD Biosciences). Xenografts were measured every four days with a digital caliper in two perpendicular dimensions. Tumor volume was calculated according to the following formula:
Tumor volume=(tumor width)×(tumor width)×(tumor length)÷2
At the end of experiments, mice were euthanized and tumors removed. Weight loss or other signs of distress such as hunched posture were checked during and after treatments.
Efficacy of treatment was evaluated by: (1) the size of tumors (vehicle control and treated), (2) the relative weight at the end of experiment, and (3) the indirect evaluation of angiogenesis by determining hemoglobin levels.
In vivo tumor response to treatment was evaluated using the following parameters: (i) Complete response (CR): defined as the disappearance of a measurable lesion, (ii) Partial response (PR): defined as a reduction of greater than 50% of the sum of the products of the cross-sectional diameters of the measurable lesion, (iii) Stable disease (SD): defined as a reduction of less than 50% or an increase of less than 25% in the sum of the products of the cross-sectional diameters of the measurable lesions, (iv) Tumor progression (TP): defined as an increase of greater than […] in the sum of the products of the cross-sectional diameters of the measured lesion, (v) Time to progression (TTP) defining the tumor growth delay. Tumor progression was calculated through the analysis of bioluminescence imaging (BLI) photon counts and when possible through the analyses of tumor volumes calculated by magnetic resonance imaging (MRI), (vi) Disease free survival (DFS) is the time elapsed between the time point at which no luciferase activity is detectable anymore and the death of the animal, (vii) Overall survival (OS) is the time elapsed between tumor inoculation and death of the animal. […] Luciferase transfected cells were used for bioluminescence evaluations.
Data are presented as mean and standard error of the mean (SEM) or standard deviation (SD). Statistical comparisons between control and treated groups were established by carrying out the Kruskal-Wallis test (a nonparametric one-way analysis of variance) or the Mann-Whitney test (in the case of two groups). The level of significance was corrected by multiplying the P value by the number of comparisons performed (n) according to […] correction. TP, TTP and DFS were analyzed by Kaplan-Meier curves and Gehan's generalized Wilcoxon test. All statistical analyses were undertaken using SPSS 10.0.
Mice with U87MG cell CDX were randomized at day 0. KcAng(1-7) was injected daily subcutaneously (0.2 μg/kg) starting at day 0 until the (ethical) endpoint maximally at day 42. TMZ was administered at 16 mg/kg during 5 consecutive days, that is from […]. Volumetric evaluation of the tumor was performed every 4 days and tumor weight was measured at the end of the experiment.
Synergism was determined using the methods described in Clarke et al. Breast Cancer Research and Treatment 46:255-278 (1997).
Mice with U87MG cell CDX were randomized at day 0. […]

[2] = tested on: U251MG glioblastoma CDX; test: Subcutaneous U251MG glioblastoma CDX: time of tumor progression; conditions: KcAng(1-7) 1 μg/kg/d, Losartan 20 mg/kg/d, or both
Experimental: Effects of KcAng(1-7) were evaluated in vivo in a subcutaneous GBM xenograft model in nude mice. Insurgence of neurologic phenomena and differences in the survival rates were evaluated. Human GBM cell lines U87MG and U251MG were used. Cell lines were grown in DMEM nutrient mixture supplemented with 10% fetal bovine serum, 1% penicillin/streptomycin, and 25 mM HEPES buffer. All cell lines were cultured at 37° C. in a humidified atmosphere consisting of 5% CO2 and 95% air. Medium was changed every 2 days and the cell morphology was evaluated under microscope daily. Six-week-old male athymic nude mice (age 5-7 weeks) were housed with free access to food and water in a temperature-controlled room. Each group is represented by 10 xenograft cd1 nu/nu mice. […] Xenografts were measured every four days with a digital caliper in two perpendicular dimensions. Tumor volume was calculated according to the following formula: In vivo tumor response to treatment was evaluated using the following parameters: […] […] TP, TTP and DFS were analyzed by Kaplan-Meier curves and Gehan's generalized Wilcoxon test. […]

[3] = tested on: U251MG glioblastoma CDX; test: Tumor hemoglobin level (indirect angiogenesis) in U251MG CDX; conditions: KcAng(1-7) 1 μg/kg/d, Losartan 20 mg/kg/d, or both
Experimental: Efficacy of treatment was evaluated by: […] In brief, tumors were homogenized in double-distilled water. Eighty microliters of homogenates were mixed with 1 mL of Drabkin's solution and incubated for 15 min at room temperature. After centrifugation at 400×g for 5 min, the supernatants were subjected to absorbance measurement at 540 nm. The absorption, which is proportional to hemoglobin concentration, was divided by tumor weight. Effect of KcAng(1-7) and Losartan against heterotopic U251MG cell culture-based xenografts (CDX) in mice. Animals were treated either with vehicle, treated with 20 mg/kg/d Losartan, treated with 1 μ[…](1-7) or treated with a combination of KcAng(1-7) and with Losartan.

[4] = tested on: U87MG glioblastoma CDX; test: Tumor hemoglobin level (indirect angiogenesis) in U87MG CDX; conditions: KcAng(1-7) 1 μg/kg/d, Losartan 20 mg/kg/d, or both
Experimental: Efficacy of treatment was evaluated by: […] Mice with U87MG cell CDX were randomized at day 0. KcAng(1-7) was injected subcutaneously (1 μg/kg) on a daily basis. Losartan was administered intraperitoneal at 20 mg/kg/day. […] In brief, tumors were homogenized in double-distilled water. Eighty microliters of homogenates were mixed with 1 mL of Drabkin's solution and incubated for 15 min at room temperature. After centrifugation at 400×g for 5 min, the supernatants were subjected to absorbance measurement at 540 nm. The absorption, which is proportional to hemoglobin concentration, was divided by tumor weight.

Row | Compound | Time of tumor progression - TTP, mean (days ± SD) ([1]; KcAng(1-7) 0.2 μg/kg/d s.c., TMZ 16 mg/kg for 5 days, or both) [days] | Tumor weight, mean (mg ± SD) ([1]; end of experiment, KcAng(1-7) 0.2 μg/kg/d s.c., TMZ 16 mg/kg for 5 days, or both) [mg] | tumor weight [%] ([1]; KcAng(1-7) 0.2 μg/kg/d, TMZ 16 mg/kg, or both) | Time of tumor progression - TTP, mean (days ± SEM) [2] [days] | Tumor hemoglobin level, mean (± SEM) [3] | Tumor hemoglobin level, mean (± SEM) [4] | Time of tumor progression - TTP, mean (days ± SEM) ([1]; KcAng(1-7) 1 μg/kg/d s.c., Losartan 20 mg/kg/d i.p., or both) [days] | Tumor weight, mean (mg ± SEM) ([1]; KcAng(1-7) 1 μg/kg/d s.c., Losartan 20 mg/kg/day i.p., or both) [mg] | tumor weight [%] ([1]; KcAng(1-7) 1 μg/kg/d, Losartan 20 mg/kg/d, or both)
1 | Cn1nnc2c(C(N)=O)ncn2c1=O [Temozolomide, temozolomide, reference compound] | 17.00 ± 0.54 | 445 ± 28 | 42.8 |  |  |  |  |  | 
2 | CCCCc1nc(Cl)c(CO)n1Cc1ccc(-c2ccccc2-c2nn[nH]n2)cc1 [Losartan, reference compound] |  |  |  | 10.6 ± 0.6 | 32.1 ± 3.1 mg Hb/g of tissue | 15.2 ± 1.0 mg hemoglobin/g of tissue | 13.0 ± 0.6 | 830 ± 57 | 79.8

From US20220257698A1, “ANGIOTENSIN TYPE 2 (AT2) RECEPTOR AGONISTS FOR USE IN THE TREATMENT OF CANCER” (LANTHIOPEP B.V., priority 2019, published 2022)
